The target of one assay is T1, Human PD-L1/PD-1 (Homo sapiens, UniProt Q9NZQ7).
T1 construct: made in house; host or cells: HEK293T
Description: HTRF PD-1-Ig/PD-L1-His binding assay (human PD-L1). The settings on record: cluster symbol; read-out: HTRF IC50 cluster. A digest of the protocol:
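HTRF read-out: Eu cryptate anti-Ig mAb 1 nM final, APC anti-His mAb 20 nM final, added over the binding reaction. Proteins were PD-1-Ig and PD-L1-His ectodomain fusions. Buffer was dPBS, 0.1% BSA, 0.05% Tween-20.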
A general note: Time-resolved FRET reads energy transfer from a long-lived donor to a nearby acceptor.

The target in assay [1] is T2, LK35.2-hPD-L1 cells / PE-labeled PD-1-Ig (Homo sapiens, UniProt Q9NZQ7).
T2 construct: expressed in transfected cells; host or cells: LK35.2 mouse B cell line
Briefly: LK35.2-hPD-L1 cell binding high-content screening assay. The class given is cell-based. The settings on record: cell binding assay, cell line not given; cluster symbol; read-out: CBA IC50 cluster. Summed up:
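Mouse LK35.2 B cells stably over-expressing human PD-L1, cultured overnight, treated with compound plus PE-labeled human PD-1-Ig (1 nM final) in RPMI/10% FCS for 1 h at 37 °C. After washing, bound fluorescence quantified by high-content imaging.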

Positions of bridges follow the written chain, without caps; N, C: chain ends. Non-standard residues stand in square brackets, D forms with d. Residues, ends and D or L forms follow the SMILES beside them. Pro(trans-4-F) = O=C(O)[C@@H]1C[C@@H](F)CN1; Hyp = O=C(O)[C@@H]1C[C@@H](O)CN1; NMeNle = CCCC[C@H](NC)C(=O)O; NMeA = CN[C@@H](C)C(=O)O; Dab = NCC[C@H](N)C(=O)O; Dap = NC[C@H](N)C(=O)O; Sar = CNCC(=O)O Bounds are passed on as bounds.

T1 sequence (Q9NZQ7 with tags, fused parts or gaps): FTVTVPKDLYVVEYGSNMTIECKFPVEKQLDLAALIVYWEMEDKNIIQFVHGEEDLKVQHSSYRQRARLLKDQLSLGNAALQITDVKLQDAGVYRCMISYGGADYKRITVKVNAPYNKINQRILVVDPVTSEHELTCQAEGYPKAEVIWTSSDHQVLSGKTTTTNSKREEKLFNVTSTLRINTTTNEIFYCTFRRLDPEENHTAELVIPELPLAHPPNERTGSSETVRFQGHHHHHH
T2 sequence (Q9NZQ7 19-290): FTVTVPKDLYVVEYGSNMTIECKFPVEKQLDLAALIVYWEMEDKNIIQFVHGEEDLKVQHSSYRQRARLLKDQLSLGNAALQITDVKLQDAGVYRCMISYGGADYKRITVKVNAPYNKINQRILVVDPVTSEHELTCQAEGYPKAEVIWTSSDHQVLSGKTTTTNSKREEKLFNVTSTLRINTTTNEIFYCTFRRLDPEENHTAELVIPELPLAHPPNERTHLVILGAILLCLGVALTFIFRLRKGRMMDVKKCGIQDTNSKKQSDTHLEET

As a reminder, the IC50 is the concentration at which inhibition is half-maximal. In the case of `CCCC[C@H]1C(=O)N(C)[C@@H](CCCC)C(=O)N[C@@H](CCN)C(=O)N[C@H](C(=O)NCC(N)=O)CSCC(=O)N[C@@H](Cc2ccc(O)cc2)C(=O)N(C)[C@@H](C)C(=O)N[C@@H](CC(N)=O)C(=O)N2CCC[C@H]2C(=O)N[C@@H](Cc2cnc[nH]2)C(=O)N[C@@H](CCC(=O)O)C(=O)N2C[C@H](O)C[C@H]2C(=O)N[C@@H](Cc2c[nH]c3ccccc23)C(=O)N[C@@H](CCN)C(=O)N[C@@H](Cc2c[nH]c3ccccc23)C(=O)N1C` [Example 5028] ({CH2CO}-Y[NMeA]NPHE[Hyp]W[Dab]W[NMeNle][NMeNle][Dab]CG-NH2; thioether N-14), the concentration for half-maximal inhibition (IC50) on Human PD-L1/PD-1 lay within 0.385 to 6.74 nM; in assay [1], 0.158 to 4.71 nM.

Take `CCCC[C@H]1C(=O)N(C)[C@@H](CCCC)C(=O)N[C@@H](CCN)C(=O)N[C@H](C(=O)NCC(N)=O)CSCC(=O)N[C@@H](Cc2ccc(O)cc2)C(=O)N(C)[C@@H](C)C(=O)N[C@@H](CC(=O)O)C(=O)N2CCC[C@H]2C(=O)N[C@@H](Cc2cnc[nH]2)C(=O)N[C@@H](CCC(=O)O)C(=O)N2C[C@H](O)C[C@H]2C(=O)N[C@@H](Cc2c[nH]c3ccccc23)C(=O)N[C@@H](CO)C(=O)N[C@@H](Cc2c[nH]c3ccccc23)C(=O)N1C` [Example 5029] ({CH2CO}-Y[NMeA]DPHE[Hyp]WSW[NMeNle][NMeNle][Dab]CG-NH2; thioether N-14): the IC50 was 0.385 to 6.74 nM at Human PD-L1/PD-1 and 0.158 to 4.71 nM in assay [1].

Regarding `CCCC[C@H]1C(=O)N(C)[C@@H](CCCC)C(=O)N[C@@H](CC(=O)O)C(=O)N[C@H](C(=O)NCC(N)=O)CSCC(=O)N[C@@H](Cc2ccccc2)C(=O)N(C)[C@@H](C)C(=O)N[C@@H](CC(N)=O)C(=O)N2CCC[C@H]2C(=O)N[C@@H](Cc2cnc[nH]2)C(=O)N[C@@H](CC(C)C)C(=O)N(C)CC(=O)N[C@@H](Cc2c[nH]c3ccccc23)C(=O)N[C@@H](CO)C(=O)N[C@@H](Cc2c[nH]c3ccccc23)C(=O)N1C` [Example 5030] ({CH2CO}-F[NMeA]NPHL[Sar]WSW[NMeNle][NMeNle]DCG-NH2; thioether N-14), the results for the concentration for half-maximal inhibition (IC50) (on Human PD-L1/PD-1; in assay [1]) were over 30.5 nM and over 74.3 nM, respectively.

As to `CCCC[C@H]1C(=O)N(C)[C@@H](CCCC)C(=O)N[C@@H](CCN)C(=O)N[C@H](C(=O)NCC(N)=O)CSCC(=O)N[C@@H](Cc2ccc(O)cc2)C(=O)N(C)[C@@H](C)C(=O)N[C@@H](CC(N)=O)C(=O)N2CCC[C@H]2C(=O)N[C@@H](Cc2cnc[nH]2)C(=O)N[C@@H](CCC(=O)O)C(=O)N2C[C@H](O)C[C@H]2C(=O)N[C@@H](Cc2c[nH]c3ccccc23)C(=O)N[C@@H](CO)C(=O)N[C@@H](Cc2c[nH]c3ccccc23)C(=O)N1C` [Example 5031] ({CH2CO}-Y[NMeA]NPHE[Hyp]WSW[NMeNle][NMeNle][Dab]CG-NH2; thioether N-14), the results for the IC50 (on Human PD-L1/PD-1; in assay [1]) were 0.385 to 6.74 nM and 0.158 to 4.71 nM, respectively.

Take `CCCC[C@H]1C(=O)N(C)[C@@H](CCCC)C(=O)N[C@@H](CCN)C(=O)N[C@H](C(=O)NCC(N)=O)CSCC(=O)N[C@@H](Cc2ccc(O)cc2)C(=O)N(C)[C@@H](C)C(=O)N[C@@H](CC(N)=O)C(=O)N2CCC[C@H]2C(=O)N[C@@H](Cc2cnc[nH]2)C(=O)N[C@@H](CC(C)C)C(=O)N2C[C@H](O)C[C@H]2C(=O)N[C@@H](Cc2c[nH]c3ccccc23)C(=O)N[C@@H](CCN)C(=O)N[C@@H](Cc2c[nH]c3ccccc23)C(=O)N1C` [Example 5032] ({CH2CO}-Y[NMeA]NPHL[Hyp]W[Dab]W[NMeNle][NMeNle][Dab]CG-NH2; thioether N-14): the half-inhibitory concentration (IC50) on Human PD-L1/PD-1 is 0.385 to 6.74 nM; in assay [1], 0.158 to 4.71 nM.

`CCCC[C@H]1C(=O)N(C)[C@@H](CCCC)C(=O)N[C@@H](CCCNC(=N)N)C(=O)N[C@H](C(=O)NCC(N)=O)CSCC(=O)N[C@@H](Cc2ccccc2)C(=O)N(C)[C@@H](C)C(=O)N[C@@H](CC(N)=O)C(=O)N2CCC[C@H]2C(=O)N[C@@H](Cc2cnc[nH]2)C(=O)N[C@@H](CC(C)C)C(=O)N2C[C@H](F)C[C@H]2C(=O)N[C@@H](Cc2c[nH]c3ccccc23)C(=O)N[C@@H](CO)C(=O)N[C@@H](Cc2c[nH]c3ccccc23)C(=O)N1C` [Example 5033] ({CH2CO}-F[NMeA]NPHL[Pro(trans-4-F)]WSW[NMeNle][NMeNle]RCG-NH2; thioether N-14): the concentration for half-maximal inhibition (IC50) on Human PD-L1/PD-1 was in the range of 6.76 to 30.3 nM; in assay [1], 4.78 to 72.9 nM.

In the case of `CCCC[C@H]1C(=O)N(C)[C@@H](CCCC)C(=O)N[C@@H](CCN)C(=O)N[C@H](C(=O)NCC(N)=O)CSCC(=O)N[C@@H](Cc2ccc(O)cc2)C(=O)N(C)[C@@H](C)C(=O)N[C@@H](CC(=O)O)C(=O)N2CCC[C@H]2C(=O)N[C@@H](Cc2cnc[nH]2)C(=O)N[C@@H](CCC(=O)O)C(=O)N2C[C@H](O)C[C@H]2C(=O)N[C@@H](Cc2c[nH]c3ccccc23)C(=O)N[C@@H](CCN)C(=O)N[C@@H](Cc2c[nH]c3ccccc23)C(=O)N1C` [Example 5034] ({CH2CO}-Y[NMeA]DPHE[Hyp]W[Dab]W[NMeNle][NMeNle][Dab]CG-NH2; thioether N-14), the IC50 at Human PD-L1/PD-1 fell in the range of 0.385 to 6.74 nM; in assay [1] it was 0.158 to 4.71 nM.

Regarding `CCCC[C@H]1C(=O)N(C)[C@@H](CCCC)C(=O)N[C@@H](C)C(=O)N[C@H](C(=O)NCC(N)=O)CSCC(=O)N[C@@H](Cc2ccc(O)cc2)C(=O)N(C)[C@@H](C)C(=O)N[C@@H](CC(N)=O)C(=O)N2CCC[C@H]2C(=O)N[C@@H](Cc2cnc[nH]2)C(=O)N[C@@H](CC(C)C)C(=O)N2C[C@H](O)C[C@H]2C(=O)N[C@@H](Cc2c[nH]c3ccccc23)C(=O)N[C@@H](CCN)C(=O)N[C@@H](Cc2c[nH]c3ccccc23)C(=O)N1C` [Example 5035], the IC50 on Human PD-L1/PD-1 lay within 0.385 to 6.74 nM; in assay [1], 0.158 to 4.71 nM.

As for `CCCC[C@H]1C(=O)N(C)[C@@H](CCCC)C(=O)N[C@@H](C)C(=O)N[C@H](C(=O)NCC(N)=O)CSCC(=O)N[C@@H](Cc2ccc(O)cc2)C(=O)N(C)[C@@H](C)C(=O)N[C@@H](CC(N)=O)C(=O)N2CCC[C@H]2C(=O)N[C@@H](Cc2cnc[nH]2)C(=O)N[C@@H](CCC(=O)O)C(=O)N2C[C@H](O)C[C@H]2C(=O)N[C@@H](Cc2c[nH]c3ccccc23)C(=O)N[C@@H](CCN)C(=O)N[C@@H](Cc2c[nH]c3ccccc23)C(=O)N1C` [Example 5036] ({CH2CO}-Y[NMeA]NPHE[Hyp]W[Dab]W[NMeNle][NMeNle]ACG-NH2; thioether N-14), the results for the half-maximal inhibitory concentration (IC50) (at Human PD-L1/PD-1; in assay [1]) were 0.385 to 6.74 nM and 0.158 to 4.71 nM, respectively.

As for `CCCC[C@H]1C(=O)N(C)[C@@H](CCCC)C(=O)N[C@@H](C)C(=O)N[C@H](C(=O)NCC(N)=O)CSCC(=O)N[C@@H](Cc2ccc(O)cc2)C(=O)N(C)[C@@H](C)C(=O)N[C@@H](CC(=O)O)C(=O)N2CCC[C@H]2C(=O)N[C@@H](Cc2cnc[nH]2)C(=O)N[C@@H](CCC(=O)O)C(=O)N2C[C@H](O)C[C@H]2C(=O)N[C@@H](Cc2c[nH]c3ccccc23)C(=O)N[C@@H](CCN)C(=O)N[C@@H](Cc2c[nH]c3ccccc23)C(=O)N1C` [Example 5037] ({CH2CO}-Y[NMeA]DPHE[Hyp]W[Dab]W[NMeNle][NMeNle]ACG-NH2; thioether N-14), the values for the IC50 (at Human PD-L1/PD-1; in assay [1]) were 0.385 to 6.74 nM and 0.158 to 4.71 nM, respectively.

Regarding `CCCC[C@H]1C(=O)N(C)[C@@H](CCCC)C(=O)N[C@@H](C)C(=O)N[C@H](C(=O)NCC(N)=O)CSCC(=O)N[C@@H](Cc2ccc(O)cc2)C(=O)N(C)[C@@H](C)C(=O)N[C@@H](CC(N)=O)C(=O)N2CCC[C@H]2C(=O)N[C@@H](Cc2cnc[nH]2)C(=O)N[C@@H](CCC(N)=O)C(=O)N2C[C@H](O)C[C@H]2C(=O)N[C@@H](Cc2c[nH]c3ccccc23)C(=O)N[C@@H](CCN)C(=O)N[C@@H](Cc2c[nH]c3ccccc23)C(=O)N1C` [Example 5038] ({CH2CO}-Y[NMeA]NPHQ[Hyp]W[Dab]W[NMeNle][NMeNle]ACG-NH2; thioether N-14), the IC50 at Human PD-L1/PD-1 is 6.76 to 30.3 nM; in assay [1], 0.158 to 4.71 nM.

As to `CCCC[C@H]1C(=O)N(C)[C@@H](CCCC)C(=O)N[C@@H](C)C(=O)N[C@H](C(=O)NCC(N)=O)CSCC(=O)N[C@@H](Cc2ccc(O)cc2)C(=O)N(C)[C@@H](C)C(=O)N[C@@H](CC(=O)O)C(=O)N2CCC[C@H]2C(=O)N[C@@H](Cc2cnc[nH]2)C(=O)N[C@@H](CCC(N)=O)C(=O)N2C[C@H](O)C[C@H]2C(=O)N[C@@H](Cc2c[nH]c3ccccc23)C(=O)N[C@@H](CCN)C(=O)N[C@@H](Cc2c[nH]c3ccccc23)C(=O)N1C` [Example 5039] ({CH2CO}-Y[NMeA]DPHQ[Hyp]W[Dab]W[NMeNle][NMeNle]ACG-NH2; thioether N-14), the figures for the IC50 (on Human PD-L1/PD-1; in assay [1]) were 0.385 to 6.74 nM and 0.158 to 4.71 nM, respectively.

Regarding `CCCC[C@H]1C(=O)N(C)[C@@H](CCCC)C(=O)N[C@@H](C)C(=O)N[C@H](C(=O)NCC(N)=O)CSCC(=O)N[C@@H](Cc2ccc(O)cc2)C(=O)N(C)[C@@H](C)C(=O)N[C@@H](CC(N)=O)C(=O)N2CCC[C@H]2C(=O)N[C@@H](CN)C(=O)N[C@@H](CCC(=O)O)C(=O)N2C[C@H](O)C[C@H]2C(=O)N[C@@H](Cc2c[nH]c3ccccc23)C(=O)N[C@@H](CCN)C(=O)N[C@@H](Cc2c[nH]c3ccccc23)C(=O)N1C` [Example 5040] ({CH2CO}-Y[NMeA]NP[Dap]E[Hyp]W[Dab]W[NMeNle][NMeNle]ACG-NH2; thioether N-14), the figures for the IC50 (on Human PD-L1/PD-1; in assay [1]) were 6.76 to 30.3 nM and 0.158 to 4.71 nM, respectively.

Consider `CCCC[C@H]1C(=O)N(C)[C@@H](CCCC)C(=O)N[C@@H](CCN)C(=O)N[C@H](C(=O)NCC(N)=O)CSCC(=O)N[C@@H](Cc2ccc(O)cc2)C(=O)N(C)[C@@H](C)C(=O)N[C@@H](CC(N)=O)C(=O)N2CCC[C@H]2C(=O)N[C@@H](Cc2cnc[nH]2)C(=O)N[C@@H](CCC(N)=O)C(=O)N2C[C@H](O)C[C@H]2C(=O)N[C@@H](Cc2c[nH]c3ccccc23)C(=O)N[C@@H](CO)C(=O)N[C@@H](Cc2c[nH]c3ccccc23)C(=O)N1C` [Example 5041] ({CH2CO}-Y[NMeA]NPHQ[Hyp]WSW[NMeNle][NMeNle][Dab]CG-NH2; thioether N-14), for which the half-maximal inhibitory concentration (IC50) was 6.76 to 30.3 nM at Human PD-L1/PD-1 and 0.158 to 4.71 nM in assay [1].

The record behind these values is patent US9850283B2, “Macrocyclic inhibitors of the PD-1/PD-L1 and CD80(B7-1)/PD-L1 protein/protein interactions” (BRISTOL-MYERS SQUIBB COMPANY, priority 2013, dated 2017).
